Patent EP0322391A1, “New phenylalkylamine derivatives” (priority 1987, dated 1989)
Read-outs that look alike come from different tables or passages of the source.

System: OTMN-induced tremor in rat
Assay: Potentiation of oxotremorine (OTMN)-induced tremor in rat (potentiation of cholinergic responses)
Format: in vivo
Details: for minimal effective dose: Rattus norvegicus, ip, read-out: Potentiation of OTMN-induced tremor in rat
Procedure: Potentiation of cholinergic responses
Male rats (Sprague Dawley Alab Laboratorietjänst AB, Sollentuna, Sweden) weighing 150-180 g, 35-40 days of age, were used. The animals were allowed free access to food (R3, Ewos AB, Södertälje, Sweden) and water until the start of the experiments. The test compounds were injected intraperitoneally (i.p.) 30 minutes before injection of the muscarine agonist oxotremorine (OTM) into the neck (s.c.). Tremor intensity was assessed visually for a 60 minutes period following the injection of OTMN in rat housed in Macrolon cages (25x25x30 cm) (three per cage). The threshold dose of OTMN for eliciting tremor in rat is about 200 µg/kg.
Tremor intensity was scored using the following rating scale: 0 = no tremor; 1 = slight tremor (moderate, discontinuous tremor; 2 = strong tremor (intense, continuous tremor involving the whole body). The animals were scored 5, 10, 15, 30 and 60 minutes after injection of OTMN. The tremor was scored for a period of 30 seconds.
The values for each observation were summed over the entire observation period (5-60 minutes) and their median values for each group were calculated (total median score). Mann-Whitney U-test (two-tailed) was used to determine differences between the control OTMN group and test groups receiving the compounds + OTMN. […].
The lowest dose causing a significant (p<0.05) potentiation of the OTMN response was determined from log-dose response curves.

[1] = lowest dose causing a significant (p<0.05) potentiation of the OTMN response, from log-dose response curves, test compound i.p. 30 minutes before oxotremorine s.c., male Sprague Dawley rats, tremor scored 5-60 minutes

For `CC(N)C(=O)OC(C)(C)Cc1ccc(Cl)cc1` (centres unmarked) [Alaproclate, alaproclate, reference compound], the minimal effective dose was 5 mg/kg.
Compound `CC(C)C(N)CC(=O)C(C)(C)Cc1ccc(F)cc1.O=C(O)C(=O)O` (centres unmarked) [Example 12, 5-Amino-1-(4-fluorophenyl)-2,2,6-trimethyl-3-heptanone oxalate] has a minimal effective dose [1] of 2.5 mg/kg.
For `CCC(N)CC(=O)C(C)(C)Cc1ccc(F)cc1` (centres unmarked) [Example 5, 5-amino-2,2-dimethyl-1-(4-fluorophenyl)-3-heptanone], the minimal effective dose [1] was 0.63 mg/kg.
Compound `CC(C)C(N)CC(O)C(C)(C)Cc1ccc(F)cc1.O=C(O)C(=O)O` (centres unmarked) [Example 8, 5-Amino-1-(4-fluorophenyl)-2,2,6-trimethyl-3-heptanol oxalate] has a minimal effective dose [1] of 10 mg/kg.
`CCCCCC(N)CC(O)C(C)(C)Cc1ccc(F)cc1.O=C(O)C(=O)O` (centres unmarked) [Example 9, 5-Amino-2,2-dimethyl-1-(4-fluorophenyl)-3-decanol oxalate] showed a minimal effective dose [1] of 5 mg/kg.
`CCC(N)CC(=O)C(C)(C)Cc1ccc(F)cc1` (centres unmarked) [Example 6, 5-amino-2,2-dimethyl-1-(4-fluorophenyl)-3-heptanone] was tested, and the “Potentiation of OTMN-induced tremor in rat” value [1] was 0.63 mg/kg.
`CCC(N)CC(O)C(C)(C)Cc1ccc(F)cc1.O=C(O)C(=O)O` (centres unmarked) [Example 7, 5-Amino-2,2-dimethyl-1-(4-fluorophenyl)-3-heptanol oxalate] was tested, and the minimal effective dose [1] was 2.5 mg/kg.
Compound `CCC(N)CC(=O)C(C)(C)Cc1ccc(F)cc1.O=C(O)C(=O)O` (racemic) [Example 1, 5-amino-2,2-dimethyl-1-(4-fluorophenyl)-3-heptanone oxalate] has a minimal effective dose [1] of 0.63 mg/kg.
